Patent publication US4937246A, “PAF antagonist, 1,4-disubstituted piperazine compounds and production thereof” (priority 1987, dated 1990)
Like-named read-outs stand apart in the source and are kept apart here.

How the values were obtained:
[1] = system: PAF-induced platelet aggregation; test: Inhibitory action on PAF-induced platelet aggregation (turbidimetry, platelet rich plasma); type: cell-based, rabbit (New Zealand white); conditions: Oryctolagus cuniculus, Concentration of test compound: 3 × 10^-5 M
Protocol: Blood was collected from the hearts of conscious New Zealand white male rabbits weighing 2 to 3 Kg using citric acid as an anticoagulant (one volume part of 3.15% citric acid relative to 9 volume parts of the whole blood). The blood was subjected to a centrifuge at 800 rpm for 10 minutes to obtain platelet rich plasma (PRP). The remaining blood after collecting the PRP was subjected to a centrifuge at 3000 rpm for 10 minutes to obtain platelet poor plasma (PPP). PRP was diluted with PPP to adjust the number of platelets to about 500,000/μl. Platelet aggregation was examined by means of turbidimetry [Born, Nature, 194, 927-929 (1962)] with 8 channel aggregometer (NBS HEMA TRACER 6 Nikoh, Bio-science, Japan). More concretely, PRP (250μl) was kept warm (37° C.) for 3 minutes in a silicon-processed cuvette, to which was added a test sample (25μl) dissolved in a physiological saline or in 10mM dimethlsulfoxide followed by dilution with a physiological saline. Two minutes later, PAF (25μl, 3×10^-9 -1×10^-8 M), dissolved in a physiological saline, was added and then the maximum aggregation rate was determined. As the control, physiological saline without test sample was added to the cuvette, and the inhibitory rate thereon was determined.
Incidentally, Compound B means N,N'-bis(3,4,5-trimethoxybenzoyl)piperazine (a known compound).

PAF-induced hypotension = test: Inhibitory action on PAF-induced hypotension (oral administration); type: in vivo, rat (SD (Jcl)); conditions: Rattus norvegicus; for inhibition in vivo at 30 mg/kg: 30 mg/kg oral; for inhibition in vivo at 3 mg/kg: 3 mg/kg oral; for inhibition in vivo at 10 mg/kg: 10 mg/kg oral
Protocol: SD (Jcl) male rats of 6 to 8 week old were applied with cannulation into the femoral artery and vein under anesthesia with pentobarbital. The animals were fasted overnight, then subjected to the experiment. A tansducer (MPU-0.5-290-0-III, TOYO BALDWIN, Japan) was connected with the artery cannula, and blood pressure was continuously measured by means of polygraph (San-ei, Japan). When the blood pressure became constant, PAF (0.5 to 1.0 μg/kg, 250 μl/kg) dissolved in a physiological saline was injected through the venous cannula to lower the blood pressures by 30 to 45 mmHg. Thirty minutes later, PAF was injected again, and the average of lowered values of blood pressure (twice) was used as the control. After restoration of blood pressure to the initial level, test samples prepared by dissolving or suspending the drug in a physiological saline suspension of gum arabic (5%) were orally administered (5 ml/kg), then, after 1, 2 and 4 hours, PAF was injected. The rate of inhibition of lowering of blood pressure after administration of the test samples against the control was evaluated.

| Structure (SMILES) | inhibition at 30 µM [1] [%] | inhibition in vivo at 30 mg/kg (PAF-induced hypotension; after 1 hr.) [%] | inhibition in vivo at 30 mg/kg (PAF-induced hypotension; after 2 hrs.) [%] | inhibition in vivo at 30 mg/kg (PAF-induced hypotension; after 4 hrs.) [%] | also measured |
| --- | --- | --- | --- | --- | --- |
| COc1cc(C(=O)N2CCN(C(=O)c3cc(OC)c(OC)c(OC)c3)CC2)cc(OC)c1OC [Compound B, N,N'-bis(3,4,5-trimethoxybenzoyl)piperazine, reference compound] | 100 | 86 | 63 | 26 | LD50 (estimated) (rats; oral, rats, single dose): ~1000 mg/kg; survival (rats; rat, in vivo, po, 1000 mg/kg): all of the animals survived |
| COc1cc(CN2CCN(C(=O)c3cc4ccccc4o3)CC2)cc(OC)c1OC.Cl [Working Example 7, 1-(2-benzofuranylcarbonyl)4-(3,4,5-trimethoxybenzyl)piperazine hydrochloride] |  |  |  |  | survival (rats; single oral dose 1000 mg/kg, rats, one week observation): all of the animals survived |
| COc1cc(CN2CCN(C(=O)c3cc(OC)c(OC)c(OC)c3)CC2)cc(OC)c1OC [compound 2] | 100 |  |  |  |  |
| CCCOc1c(OC)cc(C(=O)N2CCN(Cc3cc(OC)c(OC)c(OC)c3)CC2)cc1[N+](=O)[O-] [compound 3] | 100 | 86 | 63 | 26 |  |
| COc1ccc(C(=O)N2CCN(Cc3cc(OC)c(OC)c(OC)c3)CC2)cc1OC [compound 4] |  | 64 | 32 | 22 |  |
| CCCCOc1c(OC)cc(C(=O)N2CCN(C(=O)c3cc(OC)c(OC)c(OC)c3)CC2)cc1[N+](=O)[O-] [compound 5] |  | 91 | 93 | 88 |  |
| COc1cc(CN2CCN(C(=O)C3=Cc4cc5c(cc4CC3)OCO5)CC2)cc(OC)c1OC [compound 6] | 93 |  |  |  |  |
| COc1cc(CN2CCN(C(=O)c3cc4ccccc4o3)CC2)cc(OC)c1OC [compound 7] | 74 | 4 | 15 | 25 |  |
| COc1cc(CN2CCN(C(=O)c3cccnc3)CC2)cc(OC)c1OC [compound 8] | 63 |  |  |  |  |
| COc1cc(CN2CCN(C(=O)c3nc4ccccc4s3)CC2)cc(OC)c1OC [compound 9] | 52 |  |  |  |  |
| COc1cc(CN2CCN(C(=O)c3cc4ccccc4oc3=O)CC2)cc(OC)c1OC [compound 12] | 78 | 65 | 40 | 24 |  |
| COc1cc(CN2CCN(C(=O)c3ccsc3)CC2)cc(OC)c1OC [compound 13] | 46 |  |  |  |  |
| COc1cc(CN2CCN(C(=O)c3cnc4ccccc4c3)CC2)cc(OC)c1OC [compound 16] | 58 |  |  |  |  |
| COc1cc(CN2CCN(C(=O)c3ccc4c(c3)OCCO4)CC2)cc(OC)c1OC [compound 17] | 88 |  |  |  |  |
| COc1ccc2c3c(oc2c1)CCC(C(=O)N1CCN(Cc2cc(OC)c(OC)c(OC)c2)CC1)=C3 [compound 18] | 84 |  |  |  |  |
| COc1cc(CN2CCN(C(=O)C3CCc4sc5ccccc5c4C3O)CC2)cc(OC)c1OC (centres unmarked) [compound 19] | 64 |  |  |  |  |
| COc1cc(CN2CCN(C(=O)c3ccc4c(c3)C(=O)C3(CC3)O4)CC2)cc(OC)c1OC [compound 21] | 100 |  |  |  |  |
| COc1cc(CN2CCN(C(=O)c3ccc4c(c3)C(O)C3(CC3)O4)CC2)cc(OC)c1OC (centres unmarked) [compound 22] | 100 | 94 | 80 | 2 |  |
| COc1cc2c(cc1OC)SCCC(C(=O)N1CCN(Cc3cc(OC)c(OC)c(OC)c3)CC1)=C2 [compound 23] | 74 | 94 | 94 | 67 |  |
| COc1cc2c(cc1OC)SCCC(C(=O)N1CCN(C(=O)c3cc(OC)c(OC)c(OC)c3)CC1)=C2 [compound 24] | 100 | 94 | 91 | 78 |  |
| COc1cc2c(cc1OC)OCCC(C(=O)N1CCN(Cc3cc(OC)c(OC)c(OC)c3)CC1)=C2 [compound 25] | 100 | 100 | 97 | 70 |  |
| COc1cc2c(cc1OC)OCCC(C(=O)N1CCN(C(=O)c3cc(OC)c(OC)c(OC)c3)CC1)=C2 [compound 26] | 100 | 98 | 99 | 100 | inhibition in vivo at 3 mg/kg (PAF-induced hypotension; after 1 hr.): 74%; inhibition in vivo at 3 mg/kg (PAF-induced hypotension; after 2 hrs.): 70%; inhibition in vivo at 3 mg/kg (PAF-induced hypotension; after 4 hrs.): 44%; inhibition in vivo at 10 mg/kg (PAF-induced hypotension; after 1 hr.): 100%; inhibition in vivo at 10 mg/kg (PAF-induced hypotension; after 2 hrs.): 100%; inhibition in vivo at 10 mg/kg (PAF-induced hypotension; after 4 hrs.): 87% |
| COc1ccc2c(c1)C=C(C(=O)N1CCN(C(=O)c3cc(OC)c(OC)c(OC)c3)CC1)CCO2 [compound 27] |  | 100 | 100 | 86 | inhibition in vivo at 10 mg/kg (PAF-induced hypotension; after 1 hr.): 79%; inhibition in vivo at 10 mg/kg (PAF-induced hypotension; after 2 hrs.): 75%; inhibition in vivo at 10 mg/kg (PAF-induced hypotension; after 4 hrs.): 62% |
| COc1ccc2c(c1)OCCC(C(=O)N1CCN(C(=O)c3cc(OC)c(OC)c(OC)c3)CC1)=C2 [compound 28] |  | 92 | 91 | 92 |  |
| COc1cc2c(cc1OC)OCCC(C(=O)N1CCN(C(=S)c3cc(OC)c(OC)c(OC)c3)CC1)=C2 [compound 29] |  | 100 | 100 | 100 | inhibition in vivo at 3 mg/kg (PAF-induced hypotension; after 1 hr.): 67%; inhibition in vivo at 3 mg/kg (PAF-induced hypotension; after 2 hrs.): 71%; inhibition in vivo at 3 mg/kg (PAF-induced hypotension; after 4 hrs.): 61% |
| COc1cc2c(cc1OC)OCCC(C(=O)N1CCN(C(=O)c3cc(OC)c(OC)c(OC)c3)CC1)C2 (centres unmarked) [compound 33] | 47 | 99 | 99 | 79 |  |
